Results on 1 molecule are retold here after patent US5985834A, “Nova- and decapeptides in the preparation of a drug for the treatment of aids” (ASTA Medica AG, priority 1993, dated 1999).

The subject of this test is HIV virus. Nature of the test: Screening method for anti-HIV activity (NCI AIDS screening trial, XTT formazan, protection of virus-infected T4 lymphocytes). The test is classed as cell-based. The conditions noted are these: Human immunodeficiency virus 1, CCRF-CEM, infected culture treated, CEM cells, 6-7 days. As to the method:
Description of the Screening Method for Anti-HIV Activity
The process is suitable for locating active substances which are effective in all phases of the virus proliferation cycle. The test principle is based on the destruction of the T4 lymphocytes by the HIV virus.
Small amounts of HIV virus are added to the cell cultures. At least two complete viral reproduction cycles are needed to destroy the T4 lymphocytes and to be able to evaluate the results.
Active substances that react with virions (virus-like particles), cells or with products of the viral genes in order to interact with viral activities and thus block proliferation of the viruses will protect the cells from destruction and lysis.
The test system is automated to permit examination of a large number of cells infected with viruses. Compounds which degenerate, denaturise or that are rapidly metabolised cannot, however, be reliably discovered using the test procedure.
AZT (azidothymidine) and DDC serve as positive controls for the test.
1. T4 lymphocytes (CEM cell line) are mixed with virus in the ratio of virus:cell of ca. 1:0.05 in microtiter plates.
2. […]
5. The individual cell cultures are analysed spectrophotometrically and examined microscopically to detect surviving cells in order to confirm the protective effect. […]
7. The activity of the tested compound is determined. […]
Background: Formazan colour is commonly taken as a measure of viable cells.

Take `Cc1cn([C@H]2C[C@H](N=[N+]=[N-])[C@@H](CO)O2)c(=O)[nH]c1=O` [AZT, 3'-azido-3'-desoxythymidine]: the EC50 – broadly, the concentration needed to bring the measured effect to its halfway point – is 3.1 nM.
